Columns and labels:
[1] = test system: cathepsin D (E2/ER-regulated gene) in MCF-7 cells; assay: cathepsin D protein expression in MCF-7 cells; type: cell-based, human; conditions: 24-hr exposure to E2 (10 nM)
Procedure: FIG. 7 depicts the ability of compounds 4631-P/1 and 35466-L/1 to inhibit the expression of an ER-regulated gene. Cathepsin D was used as a prototype E2/ER-regulated gene.
For Western blotting, after the indicated treatment(s), cells were harvested, and whole-cell lysates were prepared using RIPA buffer (Santa Cruz). Equal aliquots of whole-cell protein (either 100 μg unprecipitated whole-cell lysate or one half of the precipitated protein from 500 μg whole-cell lysate) were electrophoresed on 4-12% SDS-polyacrylamide gradient gels, transferred to nitrocellulose membranes (Millipore, Bedford, Mass.), and blotted using primary antibodies directed against BRCA1 (C-20, rabbit polyclonal, 1:200 dilution; Santa Cruz), ER (F10, mouse monoclonal, sc-8002, 1:500; Santa Cruz), and actin (goat polyclonal, catalog item sc-1615, 1:400; Santa Cruz). The membranes were then blotted with the appropriate secondary antibodies (1:1000; Santa Cruz), and the blotted proteins were visualized using an electrochemiluminescence (ECL) detection system (Amersham Biosciences), with colored markers (Bio-Rad Laboratories, Hercules, Calif.) as molecular size standards.

[2] = test system: progesterone receptor (PR) activity in T47D cells; assay: MMTV-Luc reporter assay for PR activity in T47D cells; type: cell-based, human; conditions: R5020 10 nM
Procedure: FIG. 10 depicts that the inhibition of ER activity by these six compounds is not to due to non-specific cytotoxicity, since cell viability remained over 80% after a 24-hr exposure to 1 μM of each of the compounds (A). One of the compounds was tested for its ability to inhibit progestin-stimulated progesterone receptor (PR) activity in a PR+ human breast cancer cell line (T47D), using the MMTV-Luc reporter as a readout for PR activity (B). Here, PR activity was stimulated over 20-fold by the synthetic progestin R5020 (10 nM), but compound 4631-P/1 had no effect on PR activity at either 1 μM or 20 μM.
Progesterone receptor (PR) transcriptional activity assays were carried out in T47D cells using the synthetic progestin R5020 (10 nM) to activate PR and the MMTV-Luc reporter as a readout for PR activity.
Subconfluent proliferating MCF-7 cells were treated with vehicle (DMSO) or with the a sensitizing compound for 24 hours and then assayed for cell viability using MTT dye reduction assays. […] Subconfluent proliferating T47D cells were also transfected overnight with a progesterone-responsive reporter (MMTV-Luc) and then exposed to a synthetic progestin (R5020, 10 nM) for 24 hours in the absence or presence of compound 4631 P/1, as indicated.

[3] = test system: ER activity in MCF-7 cells; assay: ERE-TK-Luc reporter assay in MCF-7 cells; type: cell-based, human
Source text: (§1) FIG. 8 depicts BRCA1 over-expression partially restores Tamoxifen sensitivity to anti-estrogen-resistant LCC9 cells. The effect of BRCA1 over-expression (by transfection of a wild-type (wt) full-length BRCA1 expression vector) was studied in E2-insensitive anti-estrogen resistant LCC9 human breast cancer cells with E2-sensitive/anti-estrogen sensitive MCF-7 breast cancer cells. The wtBRCA1 suppressed the constitutive ER activity (measured using the ERE-TK-Luc reporter as a readout), but Tam (5 μM) by itself had no effect on ER activity (A and B (left)). […] When MCF-7 cells were tested in the absence of E2, ER activity was very low under most conditions (illustrating the requirement for E2 to activate ER), but in the absence of E2, Tam functioned as an ER agonist and caused about a (5-6)-fold increase in ER activity (P<0.001).
FIG. 9 depicts the inhibition of E2-stimulated ER activity in MCF-7 cells by six compounds.
Subconfluent cells in 24-well dishes were transfected overnight with 0.25 μg of each indicated vector plus the ERE-TK-Luc reporter in serum-free DMEM containing Lipofectamine2000 (Life Technologies). The total transfected DNA was kept constant by addition of the appropriate control vector. […]

[4] = test system: ER activity in LCC9 cells; assay: ERE-TK-Luc reporter assay in LCC9 cells; type: cell-based, human; conditions: Tam 5 μM, wtBRCA1 expression vector transfected
Procedure: FIG. 3 depicts the inhibition of ER activity in anti-estrogen resistant LCC9 cells. LCC9 cells in 24-well dishes were transfected overnight with the ERE-TK-Luc reporter plasmid (0.25 μg per well), washed, and allowed to recover for several hours in fresh culture medium. The cells were then treated with the indicated concentrations of the six bioactive compounds or vehicle only (DMSO) for 24 hr and assayed for luciferase activity. Luciferase activity is expressed as a percentage of the DMSO control. Values are means±SEMs of four replicate wells.
as §1, with “(P<0.001). […]” for “(P<0.001).”

BRCA1 protein levels = assay: siRNA efficacy validation by Western blotting; type: cell-based; conditions: minimum 48 hr exposure to 100 nM siRNA
Procedure: (catalog number: 43924220, Ambion/Life Technologies; and negative control-siRNA (catalog number: AM4461, Ambion). The efficacy of the ER-siRNA was validated by Western blotting. For siRNA treatments, subconfluent cells were treated with ER-specific or control siRNAs (final concentration of 100 nM) using siPORT Amine transfection reagent (Ambion), according to the manufacturer's instructions.

## C[C@]12CC[C@@H]3c4ccc(O)cc4CC[C@H]3[C@@H]1CC[C@@H]2O [E2, 17β-estradiol]
[1]
  cathepsin D protein levels after E2: increased significantly

## CCC(=O)[C@@]1(C)CC[C@H]2[C@@H]3CCC4=CC(=O)CCC4=C3CC[C@@]21C [R5020]
[2]
  stimulation of PR activity: over 20 fold

## CC/C(=C(\c1ccccc1)c1ccc(OCCN(C)C)cc1)c1ccccc1 [Tam, Tamoxifen]
[3]; absence of E2, P<0.001
  increase in ER activity in the absence of E2: 5-6 fold
[3]; with E2
  E2-stimulated ER activity in MCF-7 cells (ERE-TK-Luc): strongly suppressed
[4]
  constitutive ER activity in LCC9 cells (ERE-TK-Luc): no effect

## ER-siRNA: ER-α small interfering RNA, Ambion catalog number 43924220 (sense CAGGCACAUGAGUAACAAATT; antisense UUUGUUACUCAUGUGCCUGAT; chemistry not given here)
BRCA1 protein levels
  reduction of the BRCA1 protein levels: > 75%
